Measured values from patent US20240390515A1, “MULTIDOSE OPHTHALMIC COMPOSITIONS” (Oculis Operations Sàrl, priority 2022, published 2024).

Experiments:
[1] = cited from earlier work
[2] = tested on: Pseudomonas aeruginosa, Staphylococcus aureus, Candida albicans, Aspergillus brasiliensis, Escherichia coli; test: Antimicrobial Efficacy Test (AET) according to USP-NF monograph <51>; format: cell-based; conditions: dexamethasone eye drops, pH 5.0, USP-NF AET methodology
Protocol: For assessing the antimicrobial preservative agents, an Antimicrobial Efficacy Test (AET) is performed according to both USP-NF and EP standards • USP-NF: “American Pharmacopoeia” monograph <51> • EP: “European Pharmacopoeia” monograph […]
Those AETs consist in challenging the drug formulation containing an antimicrobial preservative agent at a certain concentration with specific microbial strains. The results are provided in microbial reduction expressed in logarithmic units. The acceptance criteria are specific of each standard (either US or EU) according to the table below. For being declared as passing the test, all the criteria must be achieved over the 28 days period. If at least one criterion is missed, then the whole test is declared failed.
AET acceptance criteria (microbial burden reduction in Log units)
Based on current knowledge those three microbial challenge tests (AETs), also known in the past as preservative efficacy tests (PET), are known to be more or less difficult to pass. EP/A test is known to be the most difficult one to pass. EB/B is less difficult than EB/A. USP-NF test is usually less difficult or sometimes equivalent to EP/B.

CCCCOC(=O)c1ccc(O)cc1 [BPB, butyl paraben]
Water solubility (at 20° C.) [1]: Low (0.25%) | Temperature Stability ([1]; in words): Yes

C/C=C/C=C/C(=O)[O-].[K+] [KS, Potassium sorbate]
minimum effective dose of potassium sorbate used as an antimicrobial agent [2]: 0.235 % w/v | Water solubility (at 20° C.) [1]: Good (>50%) | Temperature Stability ([1]; in words): Medium

C/C=C/C=C/C(=O)O [SA, (2E,4E)-hexa-2,4-dienoic acid]
Water solubility (at 20° C.) [1]: Low (0.15%) | Temperature Stability ([1]; in words): Low | solubility in water ([1]; in words): slightly soluble in water | Log P(octanol/water) ([1]; octanol/water): 1.3
